From patent US20260193268A1, “TRICYCLIC PI3Ka INHIBITOR, PREPARATION METHOD THEREFOR, AND PHARMACEUTICAL USE THEREOF” (WIGEN BIOMEDICINE TECHNOLOGY (SHANGHAI) CO., LTD., priority 2022, published 2026) come the findings set out here.

For assay [1], the system named is HCC1954 cells (with PI3Kα H1047R mutation). The assay is described as follows: In vitro inhibition of HCC1954 cell proliferation (CellTiter-Lumi). The class given is cell-based. The note with it: Homo sapiens, HCC1954, 144 h, HCC1954 cells, 144 h, CellTiter-Lumi. The method, then:
Assay for In Vitro Inhibition of HCC1954 Cell Proliferation by Compounds of the Present Disclosure
The growth of the cells was evaluated, and the IC50 for the inhibition of cell growth by the compounds was calculated.

The subject of assay [2] is MCF-7 cells (with PI3Kα E545K mutation). The assay is described as follows: In vitro inhibition of MCF-7 cell proliferation (CellTiter-Lumi). Conditions: Homo sapiens, MCF7, 144 h. The class given is cell-based. The method, then: Biological Example 3. Assay for In Vitro Inhibition of MCF-7 Cell Proliferation by Compounds of the Present Disclosure
MCF-7 cells (with PI3Kα E545K mutation) were seeded into a 384-well plate (Fisher 142762) at 2000 cells per well. The next day, serially diluted compounds were added, and 144 h after the addition, CellTiter-Lumi (Beyotime C0068XL) was added to measure the ATP content in the cells. The growth of the cells was evaluated, and the IC50 for the inhibition of cell growth by the compounds was calculated.

Setting [3] is: numeric values, read-out: Inhibitory activity against HCC1954 cells (IC50).
Where [4] appears, read: numeric values, read-out: Inhibitory activity against MCF-7 cells (IC50).
Where [5] appears, read: class symbols, read-out: Inhibitory activity against HCC1954 cells (IC50), class symbols.
The mark [6] stands for this setting: class symbols, read-out: Inhibitory activity against MCF-7 cells (IC50), class symbols.

Like-named read-outs stand apart in the source and are kept apart here.

For orientation: IC50 means the concentration at which inhibition is half-maximal.

As for `C#CC(=O)Nc1ccc(N2CC(N3CCN(c4ccc5c(c4)-c4nc(N6C(=O)OC[C@H]6C(F)F)cn4CCO5)CC3)C2)cc1` [Compound 152], the values for the IC50 in assay [1] (setting [3]) and in assay [2] (setting [4]) were 49 nM and 9.7 nM, respectively.
For `CN(C)CC#CC(=O)Nc1ccc(N2CC(N3CCN(c4ccc5c(c4)-c4nc(N6C(=O)OC[C@H]6C(F)F)cn4CCO5)CC3)C2)cc1` [Compound 153], in that order: 10 nM and 0.8 nM.
In the same order, the values of `C=CC(=O)N1CCc2nc(N3CC(N4CCN(c5ccc6c(c5)-c5nc(N7C(=O)OC[C@H]7C(F)F)cn5CCO6)CC4)C3)sc2C1` [Compound 154] are 54 nM and 4.9 nM.
Consider `C=CC(=O)N1CCc2sc(N3CC(N4CCN(c5ccc6c(c5)-c5nc(N7C(=O)OC[C@H]7C(F)F)cn5CCO6)CC4)C3)nc2C1` [Compound 155], for which the IC50 worked out at 44 nM in assay [1] (setting [3]) and 5.1 nM in assay [2] (setting [4]).
As for `CN(C1CCC1)C(C)(C)C=C(C#N)C(=O)Nc1ccc(N2CC(N3CCN(c4ccc5c(c4)-c4nc(N6C(=O)OC[C@H]6C(F)F)cn4CCO5)CC3)C2)cc1` [Compound 156], the IC50 in assay [1] (setting [3]) was determined as 49 nM; in assay [2] (setting [4]), 19 nM.
Turning to `CC(C)=CC(=O)CCCCC(=O)N1CC(N2CCN(c3ccc4c(c3)-c3nc(N5C(=O)OC[C@H]5C(F)F)cn3CCO4)CC2)C1` [Compound 157], the IC50 in assay [1] (setting [3]) was 228 nM; in assay [2] (setting [4]), 24 nM.
For `CC(C)=CC(=O)CCCCC(=O)N1CCN(c2ccc3c(c2)-c2nc(N4C(=O)OC[C@H]4C(F)F)cn2CCO3)CC1` [Compound 158], in that order: 249 nM and 321 nM.
For `C=CC(=O)N1CCCc2cc(N3CC(N4CCN(c5ccc6c(c5)-c5nc(N7C(=O)OC[C@H]7C(F)F)cn5CCO6)CC4)C3)ccc21` [Compound 159], in that order: 28 nM and 1.8 nM.
For `C=CC(=O)Nc1ccc(C2CN(C3CCN(c4ccc5c(c4)-c4nc(N6C(=O)OC[C@H]6C(F)F)cn4CCO5)CC3)C2)cc1` [Compound 160], in that order: 47 nM and 3.5 nM.
Take `C=CC(=O)Nc1ccc(N2CC(N3CCN(c4ccc5c(c4)-c4nc(N6C(=O)OC[C@H]6C(F)F)cn4CCO5)CC3)C2)nn1` [Compound 161]: the figures for the IC50 in assay [1] (setting [3]) and in assay [2] (setting [4]) were 2.9 nM and 0.5 nM, respectively.
On to `C=CC(=O)Nc1ncc(N2CC(N3CCN(c4ccc5c(c4)-c4nc(N6C(=O)OC[C@H]6C(F)F)cn4CCO5)CC3)C2)cn1` [Compound 162], for which the figures for the IC50 in assay [1] (setting [3]) and in assay [2] (setting [4]) were 3.4 nM and 0.4 nM, respectively.
For `C=CC(=O)Nc1ncc(N2CC(N3CCN(c4ccc5c(c4)-c4nc(N6C(=O)OC[C@H]6C(F)F)cn4CCO5)CC3)C2)cc1C` [Compound 163], in that order: 6.6 nM and 0.5 nM.
Take `C=CC(=O)N1CCn2nc(N3CC(N4CCN(c5ccc6c(c5)-c5nc(N7C(=O)OC[C@H]7C(F)F)cn5CCO6)CC4)C3)cc2C1` [Compound 164]: the concentration for half-maximal inhibition (IC50) in assay [1] (setting [3]) came to 53 nM; in assay [2] (setting [4]) it was 3 nM.
For `CC#CC(=O)N1CCc2cc(N3CC(N4CCN(c5ccc6c(c5)-c5nc(N7C(=O)OC[C@H]7C(F)F)cn5CCO6)CC4)C3)ccc21` [Compound 165], in that order: 30 nM and 3.4 nM.
In the same order, the values of `C=CC(=O)N1CCc2c1ccc(N1CC(N3CCN(c4ccc5c(c4)-c4nc(N6C(=O)OC[C@H]6C(F)F)cn4CCO5)CC3)C1)c2F` [Compound 166] are 9.4 nM and 1.2 nM.
For `C=CC(=O)N1CCc2cc(N3CC(N4CCN(c5ccc6c(c5)-c5nc(N7C(=O)OC[C@H]7C(F)F)cn5CCO6)CC4)C3)cnc21` [Compound 167], the IC50 in assay [1] (setting [3]) was found to be 544 nM; in assay [2] (setting [4]), 219 nM.
In the same order, the values of `COCC#CC(=O)Nc1ccc(N2CC(N3CCN(c4ccc5c(c4)-c4nc(N6C(=O)OC[C@H]6C(F)F)cn4CCO5)CC3)C2)cc1` [Compound 168] are 4.9 nM and 6.9 nM.
In the same order, the values of `C=CC(=O)N1CCc2nc(N3CC(N4CCN(c5ccc6c(c5)-c5nc(N7C(=O)OC[C@H]7C(F)F)cn5CCO6)CC4)C3)ccc21` [Compound 169] are 1 nM and 0.1 nM.
On to `NC/C=C/C(=O)Nc1ccc(N2CC(N3CCN(c4ccc5c(c4)-c4nc(N6C(=O)OC[C@H]6C(F)F)cn4CCO5)CC3)C2)cc1` [Compound 170], for which the IC50 in assay [1] (setting [3]) was determined as 77 nM; in assay [2] (setting [4]), 17 nM.
Regarding `CC(C)(C=C(C#N)C(=O)Nc1ccc(N2CC(N3CCN(c4ccc5c(c4)-c4nc(N6C(=O)OC[C@H]6C(F)F)cn4CCO5)CC3)C2)cc1)N1CCC1` [Compound 171], the figures for the IC50 in assay [1] (setting [3]) and in assay [2] (setting [4]) were 14 nM and 4.5 nM, respectively.
Consider `C=CC(=O)Nc1ccc(N2CC(N3CCN(c4ccc5c(c4)-c4nc(N6C(=O)OC[C@H]6C(F)F)cn4CCO5)CC3)C2)c(C#N)c1` [Compound 172], for which the figures for the IC50 in assay [1] (setting [3]) and in assay [2] (setting [4]) were 3.6 nM and 0.2 nM, respectively.
For `C=CC(=O)Nc1ccc(N2CC(N3CCN(c4ccc5c(c4)-c4nc(N6C(=O)OC[C@H]6C(F)F)cn4CCO5)CC3)C2)cc1OC` [Compound 173], in that order: 4 nM and 0.3 nM.
For `C=CC(=O)Nc1ccc(N2CCN(c3ccc4c(c3)-c3nc(N5C(=O)OC[C@H]5C(F)F)cn3CCO4)CC2)cc1` [Compound 174], in that order: 166 nM and 26 nM.
As to `C=CC(=O)Nc1ccc(N2CC(N3CCN(c4ccc5c(c4)-c4nc(N6C(=O)OC[C@H]6CF)cn4CCO5)CC3)C2)cc1` [Compound 176], the IC50 in assay [1] (setting [3]) is 4.9 nM; in assay [2] (setting [4]), 0.2 nM.
As for `C=CC(=O)N1CCc2cc(N3CC(N4CCN(c5ccc6c(c5)-c5nc(N7C(=O)OC[C@H]7C(F)F)cn5CCO6)CC4)C3)c(F)cc21` [Compound 177], the IC50 in assay [1] (setting [3]) worked out at 2.2 nM; in assay [2] (setting [4]), 0.1 nM.
As to `C=CC(=O)Nc1ccc(N2CC(N3CCN(c4ccc5c(c4)-c4nc(N6C(=O)CC[C@H]6C(F)F)cn4CCO5)CC3)C2)cc1` [Compound 178], the IC50 in assay [1] (setting [5]) and in assay [2] (setting [6]) was less than 50 nM in each case.
Turning to `C=CC(=O)Nc1ccc(C#CC2CCN(c3ccc4c(c3)-c3nc(N5C(=O)OC[C@H]5C(F)F)cn3CCO4)CC2)cc1` [Compound 179], the IC50 in assay [1] (setting [5]) and in assay [2] (setting [6]) was 50 to 100 nM in each case.
Take `C=CC(=O)Nc1ccc(C2CN(c3ccc(-c4ccc5c(c4)-c4nc(N6C(=O)OC[C@H]6C(F)F)cn4CCO5)cc3)C2)cc1` [Compound 181]: the figures for the IC50 in assay [1] (setting [5]) and in assay [2] (setting [6]) were 50 to 100 nM and less than 50 nM, respectively.
For `C=CC(=O)Nc1ccc(N2CCN(CC#Cc3ccc4c(c3)-c3nc(N5C(=O)OC[C@H]5C(F)F)cn3CCO4)CC2)cc1` [Compound 182], in that order: 50 to 100 nM and 50 to 100 nM.
`C=CC(=O)Nc1ccc(N2CCC3(CC2)CCN(c2ccc4c(c2)-c2nc(N5C(=O)OC[C@H]5C(F)F)cn2CCO4)CC3)cc1` [Compound 183]: the IC50 was determined as 219 nM in assay [1] (setting [3]) and 21 nM in assay [2] (setting [4]).
In the case of `N#C/C(=C\CN)C(=O)Nc1ccc(N2CC(N3CCN(c4ccc5c(c4)-c4nc(N6C(=O)OC[C@H]6C(F)F)cn4CCO5)CC3)C2)cc1` [Compound 184], the IC50 in assay [1] (setting [5]) and in assay [2] (setting [6]) was less than 50 nM throughout.
As for `CNCC#CC(=O)Nc1ccc(N2CC(N3CCN(c4ccc5c(c4)-c4nc(N6C(=O)OC[C@H]6C(F)F)cn4CCO5)CC3)C2)cc1` [Compound 185], the IC50 in assay [1] (setting [5]) and in assay [2] (setting [6]) was less than 50 nM in each case.
Take `CNC/C=C/C(=O)Nc1ccc(N2CC(N3CCN(c4ccc5c(c4)-c4nc(N6C(=O)OC[C@H]6C(F)F)cn4CCO5)CC3)C2)cc1` [Compound 186]: the IC50 is 32 nM in assay [1] (setting [3]) and 4.3 nM in assay [2] (setting [4]).
Take `CC=C(C#N)C(=O)Nc1ccc(N2CC(N3CCN(c4ccc5c(c4)-c4nc(N6C(=O)OC[C@H]6C(F)F)cn4CCO5)CC3)C2)cc1` [Compound 187]: the IC50 in assay [1] (setting [5]) and in assay [2] (setting [6]) was less than 50 nM each time.
As to `CC(C)=CC(=O)CCCC(=O)N1CCC(/C=C/c2ccc3c(c2)-c2nc(N4C(=O)OC[C@H]4C(F)F)cn2CCO3)CC1` [Compound 189], the values for the IC50 in assay [1] (setting [5]) and in assay [2] (setting [6]) were 50 to 100 nM and less than 50 nM, respectively.
For `CC(C)=CC(=O)CCCC(=O)N1CCN(Cc2ccc3c(c2)-c2nc(N4C(=O)OC[C@H]4C(F)F)cn2CCO3)CC1` [Compound 190], in that order: 50 to 100 nM and less than 50 nM.
As for `CC(C)=CC(=O)CCC(=O)N1CCC(C#Cc2ccc3c(c2)-c2nc(N4C(=O)OC[C@H]4C(F)F)cn2CCO3)CC1` [Compound 191], the IC50 in assay [1] (setting [5]) was 50 to 100 nM; in assay [2] (setting [6]) it was less than 50 nM.
In the same order, the values of `CC(C)=CC(=O)CCC(=O)N1CCN(Cc2ccc3c(c2)-c2nc(N4C(=O)OC[C@H]4C(F)F)cn2CCO3)CC1` [Compound 192] are 50 to 100 nM and less than 50 nM.
For `C=CC(=O)N1CCc2cc(N3CC(N4CCN(c5ccc6c(c5)-c5nc(N7C(=O)OC[C@H]7C(F)F)cn5CCO6)CC4)C3)cc(C#N)c21` [Compound 193], in that order: less than 50 nM and less than 50 nM.
Take `C=CC(=O)Nc1ccc(N2CC(N3CCN(c4ccc5c(c4)-c4nc(N6C(=O)OC[C@H]6C(F)F)cn4CCO5)CC3)C2)cc1Cl` [Compound 194]: the half-inhibitory concentration (IC50) is 1.2 nM in assay [1] (setting [3]) and 0.1 nM in assay [2] (setting [4]).
In the same order, the values of `C=CC(=O)Nc1ccc(N2CC(N3CCN(c4ccc5c(c4)-c4nc(N6C(=O)OC[C@H]6C(F)F)cn4CCO5)CC3)C2)c(Cl)c1` [Compound 195] are 4.6 nM and 0.3 nM.
